Test results as given in patent US20230339968A1, “KRAS Gl2C INHIBITORS” (Eli Lilly and Company, priority 2019, published 2023).

How the values were obtained:
pERK = assay: In vivo pharmacodynamic effect, pERK Meso Scale Discovery ELISA of tumor lysates, pancreatic cancer MiaPaca-2 xenograft model; conditions: Mus musculus, MIA PaCa-2, MiaPaca-2 model; for inhibition at 5 mg/kg: single dose 5 mg/kg; for inhibition at 10 mg/kg: single dose 10 mg/kg; for inhibition at 30 mg/kg: single dose 30 mg/kg
Experimental: The purpose of these assays is to evaluate in vivo target inhibition of an orally administered test compound. Human lung cancer H358 cells, or pancreatic cancer MiaPaca-2 cells, are implanted into nude mice xenograft tumor models. H358 or MiaPaca-2 cells (10×106 in a 1:1 Matrigel® mix, 0.2 mL total volume) are implanted by subcutaneous injection in hind leg of nude female mice (Harlan Laboratories). A total of 3-4 mice in each group are used for target engagement and PD study. Treatment is initiated with oral administration (gavage) of a test compound or vehicle (20% Captisol®, 25 mM phosphate, pH 2.0 in 0.2 mL) when the tumor size reaches approximately 300 mg.
For in vivo target inhibition and PD analysis, tumors are ground by mortar and pestle on dry ice and tumor fragments are added to 800 μL of lysis buffer containing 1% Triton™ X-100, 25 mM Tris pH7.5, 150 mM sodium chloride, 1 mM EDTA, and 1 mM EGTA with Halt protease and phosphatase inhibitor cocktail (Thermo Scientific, cat. no. 1861281) in lysing matrix D tubes (MP Biomedical®, cat. no. 6913-500) with one additional large bead (MP Biomedical® ¼″ ceramic sphere bead cat. no. 6540-412) per tube. Tumor fragments are homogenized in a Thermo Bio101® fast prep (FP120) at setting 4 for […] while cold for a total of 2 times. Lysates are spun at 14,000 rpm for 10 minutes at 4° C. to clarify. Protein estimation is done on the lysate supernatant using a BioRad Dc® protein assay and lysates are diluted in complete lysis/binding buffer from the Ras GTPase Chemi ELISA Kit® (Active Motif, cat. no. 52097). The active KRas ELISA is performed as follows: glutathione-coated ELISA wells are incubated with diluted RAF1-GST in complete lysis/binding buffer for 1 hour at 4° C. with gentle agitation. Wells are washed 3 times with wash buffer and 100 μg of lysates are added to each well and incubated at ambient temperature for 1 hour with mild agitation. The wells are washed an additional 3 times, then primary antibody, diluted in antibody binding buffer, is added to each well. The plates are incubated for 1 hour. The wells are washed 3 more times before adding HRP-conjugated secondary antibody, diluted in antibody binding buffer, to each well. The plates are incubated at ambient temperature for 1 hour. ELISA wells are washed 4 times, chemiluminescent reagent is added and then luminescence is read. For pERK Meso Scale Discovery ELISA, 25 μg of protein containing 0.1% SDS is used; Meso Scale Discovery Whole Cell Lysate Kit for pERK is provided by Meso Scale Discovery.
The purpose of this assay is to evaluate the does and time dependent in vivo target inhibition and pharmacodynamic effects in a pancreatic cancer model. The compound of Examples 35 is dosed at 5, 10 or 30 mg/kg in a time course experiment. After a single dose, the tumor samples are harvested at 2, 4, 8, 12 and 24 hours post doing. The tumor lysates are prepared and the inhibition of pERK and active KRas is measured as described above.

NCI-H2030 = assay: In vitro combination proliferation assay (4 day, Cell TiterGlo), NCI-H2030; type: cell-based; conditions: NCI-H2030, 4 day growth assay, absolute IC50
Experimental: Eleven cell lines for this study are obtained from ATCC and grown under ATCC recommended conditions. All cell lines have a KRAS G12C mutation, and they are […] lung cancer cell lines (H358, H1373, H1792, H2030, H2122, SW1573 and HCC44), two colorectal cancer cell lines (SW837 and SW1463), one pancreatic cancer cell line (MiaPaca-2), and one esophageal cancer cell line (KYSE410). The proliferation assay is performed as a 4 day growth assay using Cell TiterGlo® as the readout. Briefly, cells are plated in 96-well cell culture plates and allowed to adhere overnight at 37° C. The following day, cells are treated with compounds, either single treatments or combination treatments. First, the testing compounds are serially diluted in DMSO, followed by dilution into media as a 5×concentration with 1% DMSO, and finally added to cells in media to dilute to 1×. […] At the end of the incubation period, Cell TiterGlo® reagent is mixed and added to the wells. After 10 minutes, the luminescence is read by a Perkin Elmer Envision instrument. Absolute IC50 values generated by a 4-parameter logistics model for the single and combination treatments are generated, followed by combination indexes for each combination treatment and cell line. The combination IC50 values are adjusted based on the total concentration of each compound when added together. […] The combination index (CI) measures the degree to which the potency of a combination therapy differs from the expected-if-additive potency and is based on the Loewe definition of additivity.
• CA,y and CB,y are the concentrations of therapies A and B that produce an effect, y, when given in combination • ICA,y and ICB,y are the concentrations of A and B that produce an effect, y, when given individually
In some cases, if an estimated IC50 value is used for CI calculation, the calculated CI is called Potentiation Index. […]

C=CC(=O)N1CCN2C(=O)c3cc(F)c(-c4ccc(F)c5sc(N)c(C#N)c45)c(Cl)c3OCC[C@H]2C1 [Example 35, 4-[(13aS)-10-Chloro-8-fluoro-6-oxo-2-prop-2-enoyl-1,3,4,12,13,13a-hexahydropyrazino[2,1-d][1,5]benzoxazocin-9-yl]-2-amino-7-fluoro-benzothiophene-3-carbonitrile]
inhibition at 5 mg/kg (pERK; 2 hours): 51% | inhibition at 5 mg/kg (pERK; 4 hours): 50.9% | inhibition at 5 mg/kg (pERK; 8 hours): 59% | inhibition at 5 mg/kg (pERK; 12 hours): 47.4% | inhibition at 5 mg/kg (pERK; 24 hours): -30.2% | inhibition at 10 mg/kg (pERK; 2 hours): 68.5% | inhibition at 10 mg/kg (pERK; 4 hours): 58.5% | inhibition at 10 mg/kg (pERK; 8 hours): 57.6% | inhibition at 10 mg/kg (pERK; 12 hours): 49% | inhibition at 10 mg/kg (pERK; 24 hours): -14.9% | inhibition at 30 mg/kg (pERK; 2 hours): 59.5% | inhibition at 30 mg/kg (pERK; 4 hours): 58.7% | inhibition at 30 mg/kg (pERK; 8 hours): 54.3% | inhibition at 30 mg/kg (pERK; 12 hours): 58.4% | inhibition at 30 mg/kg (pERK; 24 hours): 15.6% | IC50, single treatment (Compound IC50 / Example 35 IC50) (NCI-H2030): 819.6 nM
